# Reference: patent publication US20080015236A1, “METHOD FOR PROMOTING MYOCARDIAL REGENERATION AND USES THEREOF” (priority 2006, published 2008)
# “Also recorded” adds a separate entry of the source.
# System: region of myocardium that includes a myocardial infarction
# Experiment: Occlusion of the left anterior descending artery (myocardial infarction) in rats, daily intraperitoneal GM284, survival and histological analysis
# Assay type: in vivo, Sprague Dawley rats
# From the text: The left anterior descending artery (“LAD”) of 36 male adult Sprague Dawley rats weighing between 250 and 270 grams was occluded by placement of a ligature around the LAD and pulling it taught. The ligature was left in place to create a chronic ischemic area (myocardial infarction) distal to the occlusion. Following the closure of the chest and evacuation of the extra-pulmonary air to reverse the surgery-induced pneumothorax, the rats were returned to their cages for recovery, where they had ad libitum access to water and food for the duration of the experiment. Immediately following surgery the rats received the analgesic Buprenex at a dose of 1.5 mg/kg subcutaneously every 12 hours for the first 72 hours, and then on an as-needed basis.
# The GM284 was dissolved to a final concentration of 5 mg/kg in phosphate buffered saline (“PBS”); 10 μM stock solution of GM284 in dimethyl sulfoxide (“DMSO”) was diluted in PBS. The vehicle was 250 μl of DMSO into 10 ml PBS.
# Postsurgically, the rats were randomly assigned into six (6) experimental groups (A through F) with 6 animals in each group (n=36). “Vehicle” groups A, C and E received daily intraperitoneal injections of vehicle; and, “treatment” groups B, D, and F were treated with intraperitoneal injections of GM284.
# Animals in treatment groups B, D, and F received daily intraperitoneal injections of GM284 at 5 mg/kg; and, animals in vehicle groups A, C and E received daily intraperitoneal injections of only the vehicle in which the GM284 was dissolved.
# Animals in vehicle group A and treatment group B were treated for 2 weeks after LAD ligation and sacrificed.
# Animals in vehicle group C and treatment group D were treated for 2 weeks following LAD ligation. Thereafter, the vehicle or GM284 injections were withdrawn and the animals were allowed to survive for an additional 2 weeks prior to sacrifice.
# Animals in vehicle group E treatment group F were treated daily for 30 days following LAD ligation and then sacrificed.
# Prior to sacrifice, the animals were anesthetized the hearts were harvested and processed for histological analysis by submersion-fixing in 4% paraformaldehyde at 4° C. overnight, followed by dehydration and embedding in paraffin. Eight-micra tissue sections were cut through the infarcted area and stained with H&E and trichrome. The histological sections were viewed by light microscopy, by a reviewer blind to the treatment groups, and evaluated for: • 1) the size of the infarct; • 2) the presence of viable cardiac myocytes; and, • 3) the extent of collateral vascularity.
# [1] = two weeks after LAD occlusion, daily GM284 5 mg/kg i.p., versus vehicle, FIG. 2b
compound,measurement,setting,value
CCC(C)(C)C(=O)C(=O)N1CCC[C@H]1c1nnc([C@@H]2CCCN2C(=O)C(=O)C(C)(C)CC)o1 [GM284],scarring / fibrosis (trichrome stain),"four weeks after LAD occlusion, daily treatment (group F), vehicle: extensive area of infarction, FIG. 3a",virtually no scarring; also recorded: minimal fibrosis
same,cardiac histology (H&E stain),"four weeks after LAD occlusion, daily treatment (group F), vehicle: extensive fibrosis, FIG. 3c",normal cardiac histology
same,histological appearance of the cardiac tissue after withdrawal of treatment,"treated two weeks, survived additional two weeks without treatment (group D), compared with animals analyzed at cessation of treatment",did not significantly alter the histological appearance
same,survival over the length of the study,"treatment groups B, D, F, 5 mg/kg daily intraperitoneal after LAD ligation, vehicle group mortality 25%",100%
same,intramural vascularity (histology),[1],increase in the intramural vascularity
same,viable myocardial cells (histology),[1],increase in viable myocardial cells
same,extent of collateral vascularity (histology),"two weeks after LAD occlusion, daily GM284 5 mg/kg i.p., rare in vehicle treated tissue, FIG. 2b",numerous collateral vessels
